The numbers were not newly measured in US6803034B2, “Compositions and methods for odor and fungal control in ballistic fabric and other protective garments” (Procter & Gamble Company, priority 2000, dated 2004), which cites them from elsewhere.

In the case of `[H]/N=C(\N/C(=N/[H])NCCCCCCNC(=N)NC(=N)Nc1ccc(Cl)cc1)Nc1ccc(Cl)cc1` [chlorhexidine diacetate, 1,1′-hexamethylene bis(5-(p-chlorophenyl)biguanide)], the solubility in water entry is given as “about 1.8%”.

As to `[H]/N=C(\N/C(=N/[H])NCCCCCCNC(=N)NC(=N)Nc1ccc(Cl)cc1)Nc1ccc(Cl)cc1` [chlorhexidine digluconate, 1,1′-hexamethylene bis(5-(p-chlorophenyl)biguanide)], the solubility in water entry is listed as “about 70%”.
